According to patent US20260335205A1, “ACTIVE AGENT MODULATING THE ACTIVITY OF AN ION CHANNEL FOR USE IN REGULATION OF SKIN PIGMENTATION” (priority 2022, published 2026):

Key:
[1] = test system: epidermal melanin content in human skin organ culture; experiment: Epidermal melanin content (Warthin-Starry / Fontana Masson histochemistry, quantitative histomorphometry) in ex vivo human skin organ culture; assay type: cell-based
Procedure: (§1) Samples of human abdominal, temporal, and occipital skin were obtained with written patient consent and under ethical approval from healthy adult human subjects during elective plastic surgery performed for cosmetic reasons. Full-thickness human skin samples were prepared as 4-6 mm punches, placed on filter paper, and cultured at the air-liquid interphase under serum-free conditions in William's E medium supplemented only with insulin, hydrocortisone and L-glutamine, as described previously.
For topical application of menthol (Sigma), a TRPM8 activator, a stock (5 M) was prepared in ethanol and dissolved at 37 °C at a final concentration of 1 mM in a 30% v/v solution of Polyethylene glycol 6000 (Sigma) in ethanol. For topical application of N-(3-Aminopropyl)-2-[(3-methylphenyl)methoxy]-N-(2-thienylmethyl)benzamide hydrochloride (AMTB) (Sigma), an TRPM8 inhibitor, a stock (50 mM) was prepared in water and dissolved at 37 °C at a final concentration of 10 μM in a 30% v/v solution of Polyethylene glycol 6000 (Sigma) in ethanol. Two μL droplets of this viscous solution containing menthol (1 mM), AMTB (10 μM), their combination, or ethanol as vehicle control were applied daily (up to 3 days) to the epidermis of skin biopsies.
Histochemical visualization of melanin in skin sections was performed using the Warthin-Starry Stain Kit (Abcam) or Fontana Masson histochemistry. For Warthin-Starry histochemistry, formalin-fixed human skin/HF frozen sections were rinsed in distilled water and incubated with AgNO3(0.5 % in acidulated water) for 30 seconds at 50 °C. Next, the sample was incubated with developer solution (0.42% AgNO3, 5% Gelatin, and 0.15% hydroquinone in acidulated water) and incubated for 2-5 minutes at 50 °C. The reaction was stopped by consecutive rinses in hot (60 °C) tap water for 2 minutes. Incubation with Na2S2O3 (5 % in distilled water) for 1 minute, followed by 3 minutes of consecutive washes in tap water can also be used to remove unbound AgNO3 and to tone the brown coloring of melanin black. Brief counterstain with hematoxylin was used to visualize nuclei. […]
Images were then obtained with a digital microscope (Keyence). Quantitative histomorphometric analysis was performed by assessing the relative intensity and the area of melanin stain in standardized reference areas with ImageJ (NIH; Bethesda, MD, USA). Briefly, for each parameter evaluated, multiple non-consecutive skin sections (at least 280 μm apart from each other) per punch biopsy were stained. Two skin punch biopsies were analyzed per experimental group unless indicated otherwise. The melanin content was then calculated based on the product of the fraction of area occupied by melanin and the mean shade of gray of the melanin, as described in detail elsewhere. […]

gp100 = experiment: gp100-specific immunoreactivity (immunohistochemistry, quantitative histomorphometry) in ex vivo human skin organ culture; assay type: cell-based; conditions: after 3 days
Procedure: as §1
For topical application of menthol (Sigma), a TRPM8 activator, a stock (5 M) was prepared in ethanol and dissolved at 37 °C at a final concentration of 1 mM in a 30% v/v solution of Polyethylene glycol 6000 (Sigma) in ethanol. […]
After consecutive rinses in PBS, samples were incubated with rhodamine-conjugated secondary antibody (Jackson ImmunoResearch) diluted 1:200 in normal goat serum (2% in PBS) for 45 minutes at RT. […] Image acquisition and quantitative histomorphometric analysis were performed similar to as described for the Warthin-Starry technique, with a special emphasis on assessing the relative intensity and the area of gp100-specific immunoreactivity (IR) in the basal epidermal layer (i.e., the epidermal compartment where melanocytes reside).

tyrosinase = experiment: In situ tyrosinase activity (quantitative histomorphometry) in ex vivo human skin organ culture; assay type: cell-based; conditions: after 3 days
Procedure: as §1, with “previously. […]” for “previously.”
For the in situ detection of tyrosinase activity (the enzyme that catalyzes the rate-limiting step of melanin synthesis), human skin cryosections were fixed in an acetone/methanol solution (1:1 ratio) and blocked with H2O2 (0.3 % in PBS) for 15 minutes. […] Tyrosinase activity was detected with the TSA™ Biotin System (Akoya Biosciences). […]
Image acquisition and quantitative histomorphometric analysis were performed similar to as described for the Warthin-Starry technique, with a special emphasis on assessing the relative intensity and the area of tyrosinase activity-specific immunoreactivity (IR) in the basal epidermal layer (i.e., the epidermal compartment where melanocytes reside).

melanocyte tyrosinase = conditions: background, phenolic compounds (e.g., hydroquinone and derivatives); cited from earlier work
[2] = background; cited from earlier work
[3] = topical menthol 1 mM, after 3 days, vs vehicle, Warthin-Starry (FIG. 1)

Q: Which “prevention of menthol-induced increase of epidermal melanin content” value ([1]; topical AMTB 10 μM with menthol 1 mM, after 3 days, vs vehicle, Warthin-Starry (FIG. 4)) does the source give for `Cc1cccc(COc2ccccc2C(=O)N(CCCN)Cc2cccs2)c1.Cl` [AMTB, N-(3-Aminopropyl)-2-[(3-methylphenyl)methoxy]-N-(2-thienylmethyl)benzamide hydrochloride] here?
A: prevented the effect of the TRPM8 agonist menthol (1 mM) to increase epidermal melanin content

Q: What about the “prevention of menthol-induced increase of gp100-specific IR in the basal epidermal layers” value (gp100; topical AMTB 10 μM with menthol 1 mM, vs vehicle (FIG. 5)) of the same compound?
A: prevented the effect of the TRPM8 agonist menthol (1 mM) to increase gp100-specific IR in the basal epidermal layers

Q: What about the “prevention of menthol-induced increase of tyrosinase activity in the basal epidermal layers” value (tyrosinase; topical AMTB 10 μM with menthol 1 mM, vs vehicle (FIG. 6)) of the same compound?
A: prevented the effect of the TRPM8 agonist menthol (1 mM) to increase tyrosinase activity in the basal epidermal layers

Q: Which results are given for `Oc1ccc(O)cc1` [hydroquinone]?
A: inhibition of melanocyte tyrosinase (melanocyte tyrosinase): shown to inhibit melanocyte tyrosinase; DNA damage [2]: shown to cause DNA damage; chronic adverse effects [2]: contact dermatitis, sclera and nail hyperpigmentation, impaired wound healing

Q: For `CC1CCC(C(C)C)C(O)C1` (centres unmarked) [menthol], which epidermal melanin content [1, 3] is on record?
A: markedly increases epidermal melanin content

Q: And the “melanin content in basal and suprabasal layers” value [1, 3]?
A: increased the melanin content not only in the basal layer (i.e., the epidermal compartment where melanocytes reside) but also in the suprabasal layers

Q: And the “epidermal melanin content verified by two independent histochemical technologies” value ([1]; topical, human ex vivo skin organ cultures)?
A: upregulated epidermal melanin content

Q: And the “intensity level of gp100-specific IR in the basal epidermal layers” value (gp100; topical menthol 1 mM, vs vehicle (FIG. 2))?
A: markedly increases the intensity level of gp100-specific IR in the basal epidermal layers

Q: And the “intensity level of tyrosinase activity in the basal epidermal layers” value (tyrosinase; topical menthol 1 mM, vs vehicle (FIG. 3))?
A: markedly increases the intensity level of tyrosinase activity in the basal epidermal layers
